# Experimental data taken from patent publication US12263139B2, “Use of cannabidiol in the treatment of tuberous sclerosis complex” (Jazz Pharmaceuticals Research UK Limited, priority 2017, dated 2025).
# Key:
# [1] = test system: Tsc2−/− Mouse Embryonic Fibroblast (MEF) cell lines; assay: Wound healing assay in Tsc2−/− MEFs; assay type: cell-based; conditions: CBD at 10 and 20 μM; FIG. 1 (A)
# Method: (ii) Tsc2−/− p53−/− and Tsc2+/+p53−/− mouse embryonic fibroblast (MEF) cell lines (now referred to as Tsc2−/− and Tsc2+/+, respectively).
# (§1) Tsc2−/− and Tsc2+/+ cell lines were cultured and maintained in DMEM supplemented with 10% (v/v) FBS and 1% (v/v) penicillin-streptomycin in a humidified incubator (5% CO2 at 37° C.). The AML −/− cell lines were cultured and maintained in DMEM supplemented with 15% (v/v) FBS and 1% (v/v) penicillin-streptomycin in a humidified incubator (5% CO2 at 37° C.). For hypoxia, cells were put into a Binder CB150 hypoxic chamber set at 1% 02 for the indicated time points
# The stock concentration of CBD was made to 20 mM in dimethyl sulfoxide (DMSO). […] The final concentration of the DMSO in the cell culture medium was at a maximum level of 0.05% (v/v).
# Cells were seeded in 60 mm plates and left to reach 100% confluency. Cells were then synchronised in 1% (v/v) FBS DMEM for 24 h and “wounded” with a pipette tip. Dead cells were removed with PBS wash and then subsequently replaced with DMEM (10% (v/v) FBS). Cells were pre-treated for 30 min with either rapamycin, c-MET or STAT3 inhibitors (where indicated) before cytokine stimulation. Pictures were taken before treatment and 12-18 h after treatment using an inverted AMG EVOS microscope equipped with an Olympus camera.
# HIF-1α protein = assay: Western blot of hypoxia induced HIF-1α in Tsc2−/− MEFs; assay type: cell-based, mouse; conditions: CBD at 10 μM
# Method: as §1
# Cells were washed in Phosphate Buffered Saline (PBS) and then lysed directly in sample buffer (62.5 mM Tris HCL, 50 mM DTT, 2% SDS (w/v), 10% Glycerol (w/v), 0.1% Bromophenol blue (w/v) pH 7.6) and sonicated for 5×20 s cycles on full power (30 amplitude microns). Samples were boiled at 95° C. for 10 min. Lysates were resolved by SDS-PAGE and proteins were transferred to polyvinylidene difluoride membranes.
# Membranes were blocked in 5% (w/v) dry milk powder dissolved in Tris-buffered saline containing 0.1% (v/v) Tween, then probed with primary antibody and horse radish peroxidase-conjugated secondary antibody. Proteins were visualized using Enhanced Chemiluminescent solution and Hyperfilm. Antibodies towards ribosomal protein S6 (rpS6), phospho-rpS6 (Ser235/236) were purchased from Cell Signaling Technology. Anti-HIF-1α was obtained from BD transduction laboratories. Statistical Analysis […]
# Miapaca = assay: Drug combination assay (MTT, CalcuSyn) of Rad001 and CBD in Miapaca; assay type: cell-based, Homo sapiens
# Method: For the study of the synergism between Rad001 and CBD on pancreatic cell lines Miapaca was tested, the cells were seeded in 96-multiwell plates at the density of 3.8 10^3 cells/well. After 24 hr incubation at 37° C., the cells were treated with different concentrations of Rad001 and CBD. Different molar ratios between two drugs in different sequences of administration were tested, (Rad001 for 48 h and CBD for 72 h or Rad001 for 72 h and CBD for 48 h and in co-administration for 72 h.
# The proliferative response was estimated by colorimetric 3-(4,5 di-methylthiazol-2-yl)-2,5-diphenyltetrazolium bromide (MIT) test. MTT conversion to formazan by metabolically viable cells was monitored by spectrophotometer at an optical density of 570 nm. Each data point represents the average of three separate experiments with each experiment containing four wells. Drug combination studies were based on concentration-effect curves generated as a plot of the fraction of unaffected (surviving) cells versus drug concentration after treatment.
# To explore the relative contribution of each agent to the synergism equi-active doses of […] were tested (IC50). Assessment of synergy was performed quantitating drug interaction by Calcusyn computer program (Biosoft, Ferguson, MO). Combination index (CI) values of <1, 1, and >1 indicate synergy, additivity and antagonism, respectively.
# Dose reduction index (DRI) representing the measure of how much the dose of each drug in a combination may be reduced at a given effect level compared with the doses of each drug alone.
# The effects of the pharmacological combination between CBD and RAD001 on the proliferation MIAPACA cell lines, using MTT assay were studied. The data obtained were processed with dedicated program, CalcuSyn (Chou and Talalay, Biosoft, Oregon, USA), which measures synergism.
# The specific contribution of CBD and Rad001 on the cytotoxic effect of the combination of drugs was analyzed by calculating the potentiation factor (PF) defined as the ratio of the IC50 of either CBD or Rad001 alone to the IC50 of CBD and Rad001 in combination. A higher PF indicates a greater cytotoxicity.
compound,measurement,setting,value
"C=C(C)[C@@H]1CCC(C)=C[C@H]1c1c(O)cc(CCCCC)cc1O [CBD, Cannabidiol]",block of wound closure,[1],as effective as rapamycin
same,hypoxia induced expression of HIF-1α protein,HIF-1α protein,sufficient to block hypoxia induced expression of HIF-1α protein
same,IC50,"Miapaca; Homo sapiens, MIA PaCa-2, Miapaca, 50% effect level, read-out: Dose of drug alone",3.6 µM
same,DRI50,"Miapaca; Miapaca, Rad/CBD combination, dose reduction index",CBD 7.1
same,potentiation factor (PF),Miapaca; ratio of IC50 alone to IC50 of CBD and Rad001 in combination,8
